In one series the target is T1, fMet-Leu-Phe receptor (Homo sapiens, UniProt P21462).
T1 sequence (P21462 whole entry): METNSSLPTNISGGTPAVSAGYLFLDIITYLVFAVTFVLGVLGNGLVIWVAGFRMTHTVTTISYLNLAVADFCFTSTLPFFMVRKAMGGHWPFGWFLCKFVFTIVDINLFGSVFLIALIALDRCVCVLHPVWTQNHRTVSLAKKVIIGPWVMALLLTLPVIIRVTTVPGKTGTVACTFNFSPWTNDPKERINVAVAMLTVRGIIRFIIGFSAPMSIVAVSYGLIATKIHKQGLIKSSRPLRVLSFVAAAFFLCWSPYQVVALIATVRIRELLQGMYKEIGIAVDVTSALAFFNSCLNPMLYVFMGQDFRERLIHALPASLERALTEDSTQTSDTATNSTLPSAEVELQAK
Put plainly: Agonist activity at human FPR1 transfected in human HL60 cells assessed as stimulation of Ca2+ influx measured every 5 secs for 240 secs by FLIPR assay. In kind it is functional, cell-based, HL-60. To be noted: for EC50: hl-60; for pEC50: read-out: EC50.

For series [1], the target named is T2, N-formyl peptide receptor 2 (Homo sapiens, UniProt P25090).
T2 sequence (P25090 whole entry): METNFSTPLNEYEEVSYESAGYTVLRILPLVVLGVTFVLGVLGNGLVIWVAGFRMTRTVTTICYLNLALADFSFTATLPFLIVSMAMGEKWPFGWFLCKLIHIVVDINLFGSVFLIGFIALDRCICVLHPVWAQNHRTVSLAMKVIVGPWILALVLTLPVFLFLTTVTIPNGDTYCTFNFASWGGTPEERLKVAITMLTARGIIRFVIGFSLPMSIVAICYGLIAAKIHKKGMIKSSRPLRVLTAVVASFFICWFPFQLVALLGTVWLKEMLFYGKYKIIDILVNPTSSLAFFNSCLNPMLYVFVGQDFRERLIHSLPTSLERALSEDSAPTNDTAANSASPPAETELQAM
Put plainly: Agonist activity at FPR2 in human PMN assessed as stimulation of Ca2+ influx measured every 5 secs for 240 secs by FLIPR assay in absence of probenecid. In kind it is functional. As to conditions: for pEC50: read-out: EC50; call rule not given here.

Series [2] concerns the target T2, N-formyl peptide receptor 2. Put plainly: Agonist activity at human FPR2 transfected in human HL60 cells assessed as stimulation of Ca2+ influx measured every 5 secs for 240 secs by FLIPR assay. In kind it is functional, cell-based, HL-60. As to conditions: for EC50: hl-60; for pEC50: read-out: EC50.
Series [3] shares this target. Put plainly: Agonist activity at FPR2 in human PMN assessed as stimulation of Ca2+ influx measured every 5 secs for 240 secs by FLIPR assay in presence of probenecid. To be noted: for pEC50: read-out: EC50. The format is functional.
In series [4] the target is T3, Formyl peptide receptor-related sequence 1 (Mus musculus) (UniProt O08790).
T3 sequence (whole entry): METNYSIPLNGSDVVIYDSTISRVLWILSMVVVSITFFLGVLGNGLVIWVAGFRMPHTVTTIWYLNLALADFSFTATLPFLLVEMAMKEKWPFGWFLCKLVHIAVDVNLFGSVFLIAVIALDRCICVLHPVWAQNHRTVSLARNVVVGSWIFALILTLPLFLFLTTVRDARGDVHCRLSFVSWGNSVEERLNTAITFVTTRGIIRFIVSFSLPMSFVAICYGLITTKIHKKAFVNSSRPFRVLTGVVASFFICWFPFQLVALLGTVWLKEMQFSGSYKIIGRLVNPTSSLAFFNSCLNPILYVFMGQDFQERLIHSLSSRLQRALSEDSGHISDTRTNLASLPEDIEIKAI
Put plainly: Agonist activity at FPR2 in BALB/c mouse assessed as stimulation of Ca2+ influx measured every 5 secs for 240 secs by FLIPR assay relative to fMLF. The format is functional.

In series [5] the target is T4, N-formyl peptide receptor 2 (Homo sapiens) (UniProt P25090).
T4 sequence (whole entry): T2 sequence (P25090 whole entry)
Put plainly: Agonist activity at FPR2 in human PMN assessed as stimulation of Ca2+ influx measured every 5 secs for 240 secs by FLIPR assay relative to fMLF in absence of probenecid. In kind it is functional.

Series [6] deals with T4, N-formyl peptide receptor 2 (Homo sapiens). Put plainly: Agonist activity at FPR2 in human PMN assessed as stimulation of Ca2+ influx measured every 5 secs for 240 secs by FLIPR assay relative to fMLF in presence of probenecid. The format is functional.
For series [7] the target is unchanged. Put plainly: Agonist activity at human FPR2 transfected in human HL60 cells assessed as stimulation of Ca2+ influx measured every 5 secs for 240 secs by FLIPR assay relative to WKYMVm. In kind it is functional, cell-based. As to conditions: HL-60.
The subject of series [8] is Liver microsome. As to conditions: rat, microsomes, 1 µM.
In series [9] the test system is Liver microsome. To be noted: rat, microsomes, 1 µM. This is another data set of the same source.
Description: Half life in rat liver microsomes at 1 uM preincubated for 10 mins followed by addition of NADPH regenerating system by LC-MS analysis
Series [10] has as its target T5, fMet-Leu-Phe receptor (Homo sapiens) (UniProt P21462).
T5 sequence (whole entry): T1 sequence (P21462 whole entry)
Put plainly: Agonist activity at human FPR1 transfected in human HL60 cells assessed as stimulation of Ca2+ influx measured every 5 secs for 240 secs by FLIPR assay relative to fMLF. In kind it is functional, cell-based. To be noted: HL-60.

pEC50: −log10 of the molar value.

With `COc1ccc(NC(=O)N[C@H](Cc2c[nH]c3ccccc23)C(=O)NCC2(c3cccnc3)CCCCC2)cc1`, the EC50 entry (at fMet-Leu-Phe receptor; in series [1]; in series [2]; in series [3]) was “Not Active” each time. Moreover, the Efficacy in [4] was determined as 80%.
Consider `COc1ccc(NC(=O)N[C@@H](Cc2c[nH]c3ccccc23)C(=O)NCC2(c3ccccc3)CCCCC2)cc1`, for which the EC50 entry (on fMet-Leu-Phe receptor; in series [1]; in series [2]; in series [3]) was “Not Active” in each case. Also, the Efficacy in series [4] amounted to 60%.
As usually defined, the pEC50 is −log10 of the EC50, conventionally taken in molar units. As to `COc1ccc(NC(=O)N[C@@H](Cc2c[nH]c3ccccc23)C(=O)NCC2(c3ccnc(F)c3)CCCCC2)cc1`, the Efficacy was 55% in series [5], 130% in series [6], 115% in series [7] and 50% in [4]. Also, the EC50 entry at fMet-Leu-Phe receptor was “Not Active”. Besides, the pEC50 in series [1] was 4.90; in series [2], 5.80; in series [3], 6.18.
`COc1ccc(NC(=O)N[C@H](Cc2c[nH]c3ccccc23)C(=O)NCC2(c3ccnc(F)c3)CCCCC2)cc1`: the EC50 entry (at fMet-Leu-Phe receptor; in series [1]; in series [2]; in [3]) was “Not Active” each time. In series [4], the Efficacy came to 65%.
`O=C(O)Cc1ccccc1Nc1c(Cl)cccc1Cl` [DICLOFENAC] registered a CLH in the series with Liver microsome [8] of 159.8 µL/min/mg. The compound further gave a t1/2 in the series with Liver microsome [9] of 8.7 min.
Take `COc1ccc(NC(=O)N[C@H](Cc2c[nH]c3ccccc23)C(=O)NCC2(c3ccc(F)cc3)CCCCC2)cc1`: the EC50 result (on fMet-Leu-Phe receptor; in series [1]; in series [2]; in [3]) was “Not Active” each time. The Efficacy in series [4] amounted to 25%.
Turning to `COc1ccc(NC(=O)N[C@H](Cc2c[nH]c3ccccc23)C(=O)NCC2(c3ccccc3)CCCCC2)cc1`, the Efficacy in series [6] stood at 40%; in series [7], 65%; in [4], 35%. Besides, the EC50 entry (on fMet-Leu-Phe receptor; in series [1]) was “Not Active” throughout. For the same compound, the values for the pEC50 in series [2] and in series [3] were 6.59 and 6.01, respectively.
`COc1ccc(NC(=O)N[C@H](Cc2c[nH]c3ccccc23)C(=O)NCC2(c3ccccn3)CCCCC2)cc1`: the Efficacy in [5] amounted to 40%; in [6], 115%; in [7] it was 90%; in [4], 55%. For the same compound, on fMet-Leu-Phe receptor, the EC50 entry is “Not Active”. Also, the results for the pEC50 in series [1], in series [2] and in [3] were 6.21, 6.51 and 6.31, respectively. This compound came in with a CLH with Liver microsome [8] of 2476 µL/min/mg. The compound further displayed a t1/2 in the series with Liver microsome [9] of 0.6 min.
`COc1ccc(NC(=O)N[C@@H](Cc2c[nH]c3ccccc23)C(=O)NCC2(c3ccc(OC)cn3)CCCCC2)cc1`: the Efficacy in series [6] was found to be 105%; in series [10] it was 130%; in series [7], 120%; in series [4], 110%. Further, on fMet-Leu-Phe receptor, the pEC50 was 6.37. In the series on Liver microsome [8], this compound came in with a CLH of 1162.4 µL/min/mg. Further, the t1/2 in the series with Liver microsome [9] amounted to 1.1 min.
As to `COc1ccc(C2(CNC(=O)[C@](C)(Cc3c[nH]c4ccccc34)NC(=O)Nc3ccc([N+](=O)[O-])cc3)CCCCC2)nc1`, the CLH with Liver microsome [8] came out at 314.1 µL/min/mg. In addition, in the series with Liver microsome [9], the t1/2 is recorded as 4.4 min.
Take `COc1ccc(NC(=O)N[C@H](Cc2c[nH]c3ccccc23)C(=O)NCC2(c3ccc(OC)cn3)CCCCC2)cc1`: the Efficacy in series [5] was determined as 40%; in [6] it was 95%; in series [7] it was 100%; in [4], 30%. Besides, the EC50 result on fMet-Leu-Phe receptor is listed as “Not Active”. The compound further yielded a CLH in the series with Liver microsome [8] of 1290.6 µL/min/mg. This compound also had a t1/2 with Liver microsome [9] of 1.2 min.
As for `COc1ccc(NC(=O)N[C@@H](Cc2c[nH]c3ccccc23)C(=O)NCC2(c3ccc(F)cc3)CCCCC2)cc1`, the Efficacy in series [6] was 55%; in series [7] it was 40%; in [4] it was 25%. Besides, the EC50 result (at fMet-Leu-Phe receptor; in [1]) was “Not Active” each time. Moreover, the pEC50 is 6.07 in series [2] and 5.96 in [3].
On to `COc1ccc(NC(=O)N[C@@H](Cc2c[nH]c3ccccc23)C(=O)NCC2(c3cccnc3)CCCCC2)cc1`, for which the Efficacy in series [5] worked out at 30%; in series [6] it was 105%; in series [7], 75%; in [4] it was 75%. For the same compound, the EC50 entry on fMet-Leu-Phe receptor is reported as “Not Active”. The pEC50 was 5.74 in [1], 6.14 in series [2] and 6.57 in [3].
For `COc1ccc(NC(=O)N[C@@H](Cc2c[nH]c3ccccc23)C(=O)NCC2(c3ccccn3)CCCCC2)cc1`, the Efficacy in series [5] worked out at 85%; in series [6] it was 120%; in series [10] it was 115%; in series [7] it was 135%; in series [4], 80%. The pEC50 is 6.02 at fMet-Leu-Phe receptor, 5.74 in series [1], 6.37 in series [2] and 6.35 in series [3]. Further, the CLH with Liver microsome [8] amounted to 2173.4 µL/min/mg.

The record behind these values is ChEMBL document CHEMBL3588779, “Novel 3-(1H-indol-3-yl)-2-[3-(4-methoxyphenyl)ureido]propanamides as selective agonists of human formyl-peptide receptor 2” (Bioorg Med Chem, 2015).
